Read-outs that look alike come from different tables or passages of the source.
Assays:
Assay type in all cases: cell-based
[1] = tested on: RSV A2 F-protein expression; test: RSV A2 F-protein expression in BEAS2B bronchial epithelial cells; conditions: human respiratory syncytial virus, BEAS-2B, 72 h, read-out: RSV A2 F-protein IC50
Method: Assessment of RSV F Protein Expression in BEAS2B Bronchial Epithelial Cells
An early event which follows the infection of epithelial cells by RSV is the expression of RSV F-protein on the cells' surface. BEAS2B cells (SV40-immortalised human bronchial epithelial cell line) were grown in 96 well plates. Once more than 70% confluent, cells were infected with RSV A2 (#0709161v, NCPV, Public Health England, Wiltshire) at an MOI of 0.01 in clear RPMI-1640 medium (Life technologies, Paisley, UK) with 2% FBS (Life technologies, Paisley, UK), and incubated for 3 days (37° C./5% CO2).
Supernatant was aspirated and the cells were fixed with 4% formaldehyde (100 μL in PBS solution) for 20 min, washed 3 times with washing buffer (200 μL; PBS containing 0.05% Tween-20) and incubated with blocking solution (100 μL; 5% Marvel milk in PBS) for 1 hr. Cells were then washed with washing buffer (200 μL) and incubated for 1 hr at 37° C. with anti-RSV (2F7; mouse monoclonal, lot 160290, Cat. No. ab43812, Abcam plc, Cambridge, UK) F-fusion protein antibody (50 μL; prepared at a 1:1000 dilution in 5% milk/PBS-tween). After washing, cells were incubated with an HRP-conjugated anti-mouse IgG antibody (50 μL prepared at a 1:2000 dilution in 5% milk in PBS; lot 00095437, Cat. No. P0447, Dako UK Ltd, Cambridgeshire, UK) for 1 hr. Cells were washed twice with washing buffer and once with PBS. TMB substrate (100 μL; substrate reagent pack lot 320436, Cat. No. DY999, R&D Systems, Inc. Abingdon, UK) was then added and the reaction was stopped by the addition of aq sulfuric acid (50 μL; 2N). The resultant signal was determined colourimetrically (OD: 450 nm with a reference wavelength of 655 nm) in a microplate reader (Multiskan FC®, ThermoFisher Scientific). Cells were then washed and 1% crystal violet solution (50 μL; lot SLB4576, Cat. No. HT90132-1L, Sigma-Aldrich) was applied for 30 min. After washing with PBS (200 μL) 3 times, 1% SDS (100 μL) was added to each well, and plates were shaken lightly for 1 hr prior to reading the absorbance at 595 nm. The measured OD450-655 readings were corrected for cell number by dividing the OD450-655 by the OD595 readings. The percentage inhibition for each well was calculated and the IC50 value derived from the concentration-response curve generated for each test compound.

RSV A2 strain = test: RSV A2-induced CPE in Hep2 cells; conditions: human respiratory syncytial virus; for IC50: HEp-2, 120 h, read-out: RSV A2 CPE IC50
Method: (§1) Biological Testing: Experimental Methods Assessment of RSV Induced CPE in Hep2 Cells
(§2) Hep2 cells were seeded (10^3/well/50 μL) in 384-well plates (Catalogue number 353962, BD Falcon, Oxford, UK) in 5% serum free-DMEM containing 2 mM L-glutamine and 1 mM sodium pyruvate one day before infection. RSV A2 strain (#0709161v, NCPV, Public Health England, Wiltshire) or RSV B Washington strain (VR-1580, ATCC, Manassas, Va. 20108) virus solutions were prepared in serum free-DMEM with 2 mM L-glutamine and 1 mM sodium pyruvate, and then added (50 μL/well) to achieve a final virus concentration of 1 MOI for RSV A and 0.1MOI for RSV B. Simultaneously test compounds (0.5 μL DMSO solution) were added to 100 μL of Hep2 cell culture with virus solution to provide a final DMSO solution of 0.5%. Plates were incubated (37° C./5% CO2) for 5 days for studies using RSV A2 strain or 6 days for those using RSV B strain, and then resazurin sodium salt (5 μL of 0.03% solution; Sigma-Aldrich, Dorset, UK) was added to each well and the plate incubated for a further 6 hr (37° C. and 5% CO2). The fluorescence of each well [545 nm (excitation)/590 nm (emission)] was determined using a multi-scanner (Clariostar: BMG, Buckinghamshire, UK). The percentage inhibition for each well was calculated and the IC50, IC75 and IC90 values were calculated from the concentration-response curve generated for each test compound.

[2] = Cell viability: resazurin assay in Hep2 cells; conditions: human, 5 days incubation
Method: Cell Viability: Resazurin Assay Hep2 cells were seeded in 384-well plates (10^3/well/50 μL; BD Falcon Ref 353962) in FBS DMEM (5%, containing 2 mM L-glutamine and 1 mM sodium pyruvate) one day before experimentation. Serum-free DMEM (50 μL) was added to test wells while for control wells the media was removed and sterile water (100 μL) was added. Test compounds (0.5 μL DMSO solution) were added to give a final DMSO concentration of 0.5%. Hep2 cells were incubated with each test compound for 5 days (37° C./5% CO2 in 5% FBS) and then resazurin stock solution (5 μL; 0.03%) was added to each well and the plate incubated further for a further 6 hrs (37° C./5% CO2). The fluorescence of each well at 545 nm (excitation) and 590 nm (emission) was determined using a multi-scanner (Clariostar: BMG Labtech). The percentage loss of cell viability was calculated for each well relative to vehicle (0.5% DMSO) treatment. Where appropriate, a CC50 value was calculated from the concentration-response curve generated from the concentration-response curve for each test compound.

RSV B Washington strain = test: RSV B-induced CPE in Hep2 cells; conditions: human respiratory syncytial virus; for IC50: HEp-2, 144 h, read-out: RSV B CPE IC50
Method: as §1, §2

CCc1cccc2nc(-c3cc4c(s3)-c3ccccc3N(C(=O)c3ccc(NC(=O)c5cc(C)cnc5N5CC6(CCOCC6)C5)cc3)CC4)[nH]c12 [Example 3, N-(4-(2-(7-Ethyl-1H-benzo[d]imidazol-2-yl)-5,6-dihydro-4H-benzo[b]thieno[2,3-d]azepine-6-carbonyl)phenyl)-5-methyl-2-(7-oxa-2-azaspiro[3.5]nonan-2-yl)nicotinamide]
IC50 [1]: 0.78 nM
IC50 (RSV A2 strain): 2.6 nM
inhibition at 0.01 µg/mL (RSV A2 strain; HEp-2, read-out: RSV A2 CPE % Inhibition): 100%
CC50 at 5 days [2]: > 14100 nM
IC50 (RSV B Washington strain): 8.6 nM
inhibition at 1 µg/mL (RSV B Washington strain; HEp-2, read-out: RSV B CPE % Inhibition): 100%

Cc1cnc(N2CC3(CCOCC3)C2)c(C(=O)Nc2ccc(C(=O)N3CCc4cc(-c5nc6cccc(F)c6[nH]5)sc4-c4ccccc43)cc2)c1 [Example 14, N-(4-(2-(7-fluoro-1H-benzo[d]imidazol-2-yl)-5,6-dihydro-4H-benzo[b]thieno[2,3-d]azepine-6-carbonyl)phenyl)-5-methyl-2-(7-oxa-2-azaspiro[3.5]nonan-2-yl)nicotinamide]
IC50 [1]: 0.31 nM
IC50 (RSV A2 strain; Hep2 cells, RSV A2 1 MOI, 5 days, resazurin): 0.24 nM
inhibition at 0.01 µg/mL (RSV A2 strain; HEp-2, Hep2 cells, at 0.01 μg/mL (footnote 2), read-out: RSV A2 CPE % Inhibition): 93%
CC50 at 5 days [2]: > 14300 nM
IC50 (RSV B Washington strain; Hep2 cells, RSV B Washington 0.1 MOI, 6 days, resazurin): 0.99 nM
inhibition at 1 µg/mL (RSV B Washington strain; HEp-2, Hep2 cells, at 1 μg/mL, read-out: RSV B CPE % Inhibition): 100%

Reference: patent US10160772B2, “5,6-dihydro-4H-benzo[b]thieno-[2,3-d]azepine derivatives” (PULMOCIDE LIMITED, priority 2014, dated 2018)
